According to PMC10384657 (Virus Research, 2023):

tested on: MPER25c peptide (S2 membrane proximal region derived); assay type: binding, SARS-CoV-2; conditions: not given

SMILES	fold lower binding activity to immobilized MPER25c than PN19
CC[C@H](C)[C@H](NC(=O)[C@H](CCC(N)=O)NC(=O)[C@H](CC(C)C)NC(=O)[C@H](C)NC(=O)[C@H](C)NC(=O)CNC(=O)[C@H](C)NC(=O)CNC(=O)[C@H](Cc1ccccc1)NC(C)=O)C(=O)N1CCC[C@H]1C(=O)N[C@@H](C)C(=O)N[C@@H](C)C(=O)N[C@@H](CCSC)C(=O)N[C@@H](CCC(N)=O)C(=O)N[C@@H](CCSC)C(=O)N[C@@H](C)C(=O)N[C@@H](Cc1ccc(O)cc1)C(=O)N[C@@H](CCCNC(=N)N)C(=O)N[C@@H](Cc1ccccc1)C(N)=O [PN19F→A898]	2-3 fold
CC[C@H](C)[C@H](NC(=O)[C@H](CCC(N)=O)NC(=O)[C@H](CC(C)C)NC(=O)[C@H](C)NC(=O)[C@H](C)NC(=O)CNC(=O)[C@H](C)NC(=O)CNC(=O)[C@H](Cc1ccccc1)NC(C)=O)C(=O)N1CCC[C@H]1C(=O)N[C@@H](Cc1ccccc1)C(=O)N[C@@H](C)C(=O)N[C@@H](CCSC)C(=O)N[C@@H](CCC(N)=O)C(=O)N[C@@H](CCSC)C(=O)N[C@@H](C)C(=O)N[C@@H](Cc1ccc(O)cc1)C(=O)N[C@@H](CCCNC(=N)N)C(=O)N[C@@H](C)C(N)=O [PN19F→A906]	2-3 fold

tested on: Vero E6 cells; conditions: 72 h

SMILES	CC50 (mean ± SD) [µM]
CC[C@H](C)[C@H](NC(=O)[C@H](CCC(N)=O)NC(=O)[C@H](CC(C)C)NC(=O)[C@H](C)NC(=O)[C@H](C)NC(=O)CNC(=O)[C@H](C)NC(=O)CNC(=O)[C@H](Cc1ccccc1)NC(=O)[C@@H](NC(=O)[C@H](Cc1c[nH]c2ccccc12)NC(=O)CNC(=O)[C@H](CO)NC(C)=O)[C@@H](C)O)C(=O)N1CCC[C@H]1C(=O)N[C@@H](Cc1ccccc1)C(=O)N[C@@H](C)C(=O)N[C@@H](CCSC)C(N)=O [PC17]	> 100
CC[C@H](C)[C@H](NC(=O)[C@H](CCC(N)=O)NC(=O)[C@H](CC(C)C)NC(=O)[C@H](C)NC(=O)[C@H](C)NC(=O)CNC(=O)[C@H](C)NC(=O)CNC(=O)[C@H](Cc1ccccc1)NC(=O)[C@@H](NC(=O)[C@H](Cc1c[nH]c2ccccc12)NC(=O)CNC(=O)[C@H](CO)NC(C)=O)[C@@H](C)O)C(=O)N1CCC[C@H]1C(=O)N[C@@H](Cc1ccccc1)C(=O)N[C@@H](C)C(=O)N[C@@H](CCSC)C(=O)N[C@@H](CCC(N)=O)C(=O)N[C@@H](CCSC)C(N)=O [PC19]	> 100
CSCC[C@H](NC(=O)[C@H](C)NC(=O)[C@H](Cc1ccccc1)NC(C)=O)C(=O)N[C@@H](CCC(N)=O)C(=O)N[C@@H](CCSC)C(=O)N[C@@H](C)C(=O)N[C@@H](Cc1ccc(O)cc1)C(=O)N[C@@H](CCCNC(=N)N)C(=O)N[C@@H](Cc1ccccc1)C(N)=O [PN9]	> 100
CC[C@H](C)[C@H](NC(=O)[C@H](CCC(N)=O)NC(=O)[C@H](CC(C)C)NC(C)=O)C(=O)N1CCC[C@H]1C(=O)N[C@@H](Cc1ccccc1)C(=O)N[C@@H](C)C(=O)N[C@@H](CCSC)C(=O)N[C@@H](CCC(N)=O)C(=O)N[C@@H](CCSC)C(=O)N[C@@H](C)C(=O)N[C@@H](Cc1ccc(O)cc1)C(=O)N[C@@H](CCCNC(=N)N)C(=O)N[C@@H](Cc1ccccc1)C(N)=O [PN13]	> 100
CC[C@H](C)[C@H](NC(=O)[C@H](CCC(N)=O)NC(=O)[C@H](CC(C)C)NC(=O)[C@H](C)NC(=O)[C@H](C)NC(=O)CNC(=O)[C@H](C)NC(C)=O)C(=O)N1CCC[C@H]1C(=O)N[C@@H](Cc1ccccc1)C(=O)N[C@@H](C)C(=O)N[C@@H](CCSC)C(=O)N[C@@H](CCC(N)=O)C(=O)N[C@@H](CCSC)C(=O)N[C@@H](C)C(=O)N[C@@H](Cc1ccc(O)cc1)C(=O)N[C@@H](CCCNC(=N)N)C(=O)N[C@@H](Cc1ccccc1)C(N)=O [PN17]	> 100
CC[C@H](C)[C@H](NC(=O)[C@H](CCC(N)=O)NC(=O)[C@H](CC(C)C)NC(=O)[C@H](C)NC(=O)[C@H](C)NC(=O)CNC(=O)[C@H](C)NC(=O)CNC(=O)[C@H](C)NC(C)=O)C(=O)N1CCC[C@H]1C(=O)N[C@@H](Cc1ccccc1)C(=O)N[C@@H](C)C(=O)N[C@@H](CCSC)C(=O)N[C@@H](CCC(N)=O)C(=O)N[C@@H](CCSC)C(=O)N[C@@H](C)C(=O)N[C@@H](Cc1ccc(O)cc1)C(=O)N[C@@H](CCCNC(=N)N)C(=O)N[C@@H](Cc1ccccc1)C(N)=O [PN19F→A888]	> 100
CC[C@H](C)[C@H](NC(=O)[C@H](CCC(N)=O)NC(=O)[C@H](CC(C)C)NC(=O)[C@H](C)NC(=O)[C@H](C)NC(=O)CNC(=O)[C@H](C)NC(=O)CNC(=O)[C@H](Cc1ccccc1)NC(C)=O)C(=O)N1CCC[C@H]1C(=O)N[C@@H](C)C(=O)N[C@@H](C)C(=O)N[C@@H](CCSC)C(=O)N[C@@H](CCC(N)=O)C(=O)N[C@@H](CCSC)C(=O)N[C@@H](C)C(=O)N[C@@H](Cc1ccc(O)cc1)C(=O)N[C@@H](CCCNC(=N)N)C(=O)N[C@@H](Cc1ccccc1)C(N)=O [PN19F→A898]	> 100
CC[C@H](C)[C@H](NC(=O)[C@H](CCC(N)=O)NC(=O)[C@H](CC(C)C)NC(=O)[C@H](C)NC(=O)[C@H](C)NC(=O)CNC(=O)[C@H](C)NC(=O)CNC(=O)[C@H](Cc1ccccc1)NC(C)=O)C(=O)N1CCC[C@H]1C(=O)N[C@@H](Cc1ccccc1)C(=O)N[C@@H](C)C(=O)N[C@@H](CCSC)C(=O)N[C@@H](CCC(N)=O)C(=O)N[C@@H](CCSC)C(=O)N[C@@H](C)C(=O)N[C@@H](Cc1ccc(O)cc1)C(=O)N[C@@H](CCCNC(=N)N)C(=O)N[C@@H](C)C(N)=O [PN19F→A906]	> 100
CSCC[C@H](NC(=O)[C@H](C)NC(=O)[C@H](Cc1ccccc1)NC(=O)[C@@H]1CCCN1C(=O)[C@H](C)NC(=O)[C@H](CCC(N)=O)NC(=O)[C@H](CC(C)C)NC(=O)[C@H](C)NC(=O)[C@H](C)NC(=O)CNC(=O)[C@H](C)NC(=O)CNC(=O)[C@H](Cc1ccccc1)NC(C)=O)C(=O)N[C@@H](CCC(N)=O)C(=O)N[C@@H](CCSC)C(=O)N[C@@H](C)C(=O)N[C@@H](Cc1ccc(O)cc1)C(=O)N[C@@H](CCCNC(=N)N)C(=O)N[C@@H](Cc1ccccc1)C(N)=O [PN19I→A896]	> 100
CC[C@H](C)[C@H](NC(=O)[C@H](CCC(N)=O)NC(=O)[C@H](C)NC(=O)[C@H](C)NC(=O)[C@H](C)NC(=O)CNC(=O)[C@H](C)NC(=O)CNC(=O)[C@H](Cc1ccccc1)NC(C)=O)C(=O)N1CCC[C@H]1C(=O)N[C@@H](Cc1ccccc1)C(=O)N[C@@H](C)C(=O)N[C@@H](CCSC)C(=O)N[C@@H](CCC(N)=O)C(=O)N[C@@H](CCSC)C(=O)N[C@@H](C)C(=O)N[C@@H](Cc1ccc(O)cc1)C(=O)N[C@@H](CCCNC(=N)N)C(=O)N[C@@H](Cc1ccccc1)C(N)=O [PN19L→A894]	> 100
CC[C@H](C)[C@H](NC(=O)[C@H](CCC(N)=O)NC(=O)[C@H](CC(C)C)NC(=O)[C@H](C)NC(=O)[C@H](C)NC(=O)CNC(=O)[C@H](C)NC(=O)CNC(=O)[C@H](Cc1ccccc1)NC(C)=O)C(=O)N1CCC[C@H]1C(=O)N[C@@H](Cc1ccccc1)C(=O)N[C@@H](C)C(=O)N[C@@H](C)C(=O)N[C@@H](CCC(N)=O)C(=O)N[C@@H](CCSC)C(=O)N[C@@H](C)C(=O)N[C@@H](Cc1ccc(O)cc1)C(=O)N[C@@H](CCCNC(=N)N)C(=O)N[C@@H](Cc1ccccc1)C(N)=O [PN19M→A900]	> 100
CC[C@H](C)[C@H](NC(=O)[C@H](CCC(N)=O)NC(=O)[C@H](CC(C)C)NC(=O)[C@H](C)NC(=O)[C@H](C)NC(=O)CNC(=O)[C@H](C)NC(=O)CNC(=O)[C@H](Cc1ccccc1)NC(C)=O)C(=O)N1CCC[C@H]1C(=O)N[C@@H](Cc1ccccc1)C(=O)N[C@@H](C)C(=O)N[C@@H](CCSC)C(=O)N[C@@H](CCC(N)=O)C(=O)N[C@@H](C)C(=O)N[C@@H](C)C(=O)N[C@@H](Cc1ccc(O)cc1)C(=O)N[C@@H](CCCNC(=N)N)C(=O)N[C@@H](Cc1ccccc1)C(N)=O [PN19M→A902]	> 100
CC[C@H](C)[C@H](NC(=O)[C@H](CCC(N)=O)NC(=O)[C@H](CC(C)C)NC(=O)[C@H](C)NC(=O)[C@H](C)NC(=O)CNC(=O)[C@H](C)NC(=O)CNC(=O)[C@H](Cc1ccccc1)NC(C)=O)C(=O)N[C@@H](C)C(=O)N[C@@H](Cc1ccccc1)C(=O)N[C@@H](C)C(=O)N[C@@H](CCSC)C(=O)N[C@@H](CCC(N)=O)C(=O)N[C@@H](CCSC)C(=O)N[C@@H](C)C(=O)N[C@@H](Cc1ccc(O)cc1)C(=O)N[C@@H](CCCNC(=N)N)C(=O)N[C@@H](Cc1ccccc1)C(N)=O [PN19P→A897]	> 100
CC[C@H](C)[C@H](NC(=O)[C@H](C)NC(=O)[C@H](CC(C)C)NC(=O)[C@H](C)NC(=O)[C@H](C)NC(=O)CNC(=O)[C@H](C)NC(=O)CNC(=O)[C@H](Cc1ccccc1)NC(C)=O)C(=O)N1CCC[C@H]1C(=O)N[C@@H](Cc1ccccc1)C(=O)N[C@@H](C)C(=O)N[C@@H](CCSC)C(=O)N[C@@H](CCC(N)=O)C(=O)N[C@@H](CCSC)C(=O)N[C@@H](C)C(=O)N[C@@H](Cc1ccc(O)cc1)C(=O)N[C@@H](CCCNC(=N)N)C(=O)N[C@@H](Cc1ccccc1)C(N)=O [PN19Q→A895]	>100
CC[C@H](C)[C@H](NC(=O)[C@H](CCC(N)=O)NC(=O)[C@H](CC(C)C)NC(=O)[C@H](C)NC(=O)[C@H](C)NC(=O)CNC(=O)[C@H](C)NC(=O)CNC(=O)[C@H](Cc1ccccc1)NC(C)=O)C(=O)N1CCC[C@H]1C(=O)N[C@@H](Cc1ccccc1)C(=O)N[C@@H](C)C(=O)N[C@@H](CCSC)C(=O)N[C@@H](C)C(=O)N[C@@H](CCSC)C(=O)N[C@@H](C)C(=O)N[C@@H](Cc1ccc(O)cc1)C(=O)N[C@@H](CCCNC(=N)N)C(=O)N[C@@H](Cc1ccccc1)C(N)=O [PN19Q→A901]	> 100
CC[C@H](C)[C@H](NC(=O)[C@H](CCC(N)=O)NC(=O)[C@H](CC(C)C)NC(=O)[C@H](C)NC(=O)[C@H](C)NC(=O)CNC(=O)[C@H](C)NC(=O)CNC(=O)[C@H](Cc1ccccc1)NC(C)=O)C(=O)N1CCC[C@H]1C(=O)N[C@@H](Cc1ccccc1)C(=O)N[C@@H](C)C(=O)N[C@@H](CCSC)C(=O)N[C@@H](CCC(N)=O)C(=O)N[C@@H](CCSC)C(=O)N[C@@H](C)C(=O)N[C@@H](Cc1ccc(O)cc1)C(=O)N[C@@H](C)C(=O)N[C@@H](Cc1ccccc1)C(N)=O [PN19R→A905]	> 100
CC[C@H](C)[C@H](NC(=O)[C@H](CCC(N)=O)NC(=O)[C@H](CC(C)C)NC(=O)[C@H](C)NC(=O)[C@H](C)NC(=O)CNC(=O)[C@H](C)NC(=O)CNC(=O)[C@H](Cc1ccccc1)NC(C)=O)C(=O)N1CCC[C@H]1C(=O)N[C@@H](Cc1ccccc1)C(=O)N[C@@H](C)C(=O)N[C@@H](CCSC)C(=O)N[C@@H](CCC(N)=O)C(=O)N[C@@H](CCSC)C(N)=O [PNC15]	> 100
CC[C@H](C)[C@H](NC(=O)[C@H](CCC(N)=O)NC(=O)[C@H](CC(C)C)NC(=O)[C@H](C)NC(=O)[C@H](C)NC(=O)CNC(=O)[C@H](C)NC(=O)CNC(=O)[C@H](Cc1ccccc1)NC(=O)[C@@H](NC(=O)[C@H](Cc1c[nH]c2ccccc12)NC(C)=O)[C@@H](C)O)C(=O)N1CCC[C@H]1C(=O)N[C@@H](Cc1ccccc1)C(=O)N[C@@H](C)C(=O)N[C@@H](CCSC)C(=O)N[C@@H](CCC(N)=O)C(=O)N[C@@H](CCSC)C(=O)N[C@@H](C)C(=O)N[C@@H](Cc1ccc(O)cc1)C(N)=O [PNC19]	> 100
